The source of these data is US12209087B2, “AKT1 modulators” (Alterome Therapeutics, Inc., priority 2022, dated 2025).

Each structure is given as a SMILES string.

T1 sequence (P31749 whole entry E17K): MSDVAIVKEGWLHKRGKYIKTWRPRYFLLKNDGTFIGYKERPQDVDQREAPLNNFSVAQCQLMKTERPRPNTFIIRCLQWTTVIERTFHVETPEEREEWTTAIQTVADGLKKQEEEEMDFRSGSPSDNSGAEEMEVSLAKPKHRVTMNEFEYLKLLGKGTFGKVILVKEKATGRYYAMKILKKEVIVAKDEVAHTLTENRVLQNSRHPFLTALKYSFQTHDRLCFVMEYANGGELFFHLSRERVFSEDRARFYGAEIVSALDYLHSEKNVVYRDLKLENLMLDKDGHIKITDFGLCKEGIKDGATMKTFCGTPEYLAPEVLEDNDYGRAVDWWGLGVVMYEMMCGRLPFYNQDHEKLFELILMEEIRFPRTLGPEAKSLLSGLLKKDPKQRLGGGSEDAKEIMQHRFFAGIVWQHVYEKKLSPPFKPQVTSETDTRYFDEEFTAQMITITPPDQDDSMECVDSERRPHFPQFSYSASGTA

One test has as its target T1, full length AKT E17K (Homo sapiens, UniProt P31749, E17K).
T1 construct: host or cells: HEK-293 (ATCC CRL-1573)
In words: NanoBRET Target Engagement (TE) Assay. It is filed as cell-based. The conditions noted are these: competitive displacement of tracer in cells, read-out: AKT1 E17K IC50. Summed up: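 Compound and tracer incubated 2 h before luminescence at donor 450 nm and acceptor 600 nm, with extracellular signal inhibited. EC50 by sigmoidal variable-slope regression.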
A general note: Bioluminescence resonance energy transfer reports proximity on the nanometre scale.
In the case of `[2H]C1(Nc2ccnc(C#N)n2)CCN(Cc2ccc(-n3c(-c4cccnc4N)nc4cccnc43)cc2)CC1` [Example 503, 4-((1-(4-(2-(2-Aminopyridin-3-yl)-3H-imidazo[4,5-b]pyridin-3-yl)benzyl)piperidin-4-yl-4-d)amino)pyrimidine-2-carbonitrile], the IC50 (as a rule, the midpoint of a concentration-inhibition curve) was in the range of 15 to 60 nM.
Same read-out and setting: the value for `N#Cc1nccc(NC2CCN(Cc3ccc(-n4c(-c5cccnc5N)nc5ccc(-c6ccc(CF)cn6)nc54)cc3)CC2)n1` [Example 648, 4-((1-(4-(2-(2-Aminopyridin-3-yl)-5-(5-(fluoromethyl)pyridin-2-yl)-3H-imidazo[4,5-b]pyridin-3-yl)benzyl)piperidin-4-yl)amino)pyrimidine-2-carbonitrile] was less than 15 nM.
As for `Cc1ccc(-c2ccc3nc(-c4cccnc4N)n(-c4ccc(CN5CCC(Nc6ccnc(C#N)n6)CC5)cc4)c3n2)nc1` [Example 547, 4-((1-(4-(2-(2-Aminopyridin-3-yl)-5-(5-methylpyridin-2-yl)-3H-imidazo[4,5-b]pyridin-3-yl)benzyl)piperidin-4-yl)amino)pyrimidine-2-carbonitrile], the IC50 was less than 15 nM.
Same read-out and setting: the value for `COc1cccnc1-c1ccc2nc(-c3cccnc3N)n(-c3ccc(CN4CCC(Nc5ccnc(C#N)n5)CC4)cc3)c2n1` [Example 563, 4-((1-(4-(2-(2-Aminopyridin-3-yl)-5-(3-methoxypyridin-2-yl)-3H-imidazo[4,5-b]pyridin-3-yl)benzyl)piperidin-4-yl)amino)pyrimidine-2-carbonitrile] was less than 15 nM; that for `N#Cc1nccc(NC2CCN(Cc3ccc(-n4c(-c5cccnc5N)nc5cnccc54)cc3)CC2)n1` [Example 540, 4-((1-(4-(2-(2-Aminopyridin-3-yl)-1H-imidazo[4,5-c]pyridin-1-yl)benzyl)piperidin-4-yl)amino)pyrimidine-2-carbonitrile] was 60 to 600 nM; that for `N#Cc1nccc(NC2CCN(Cc3ccc(-n4c(-c5cccnc5)nc5ccc(-c6ccc(F)cn6)nc54)cc3)CC2)n1` [Example 575, 4-((1-(4-(5-(5-Fluoropyridin-2-yl)-2-(pyridin-3-yl)-3H-imidazo[4,5-b]pyridin-3-yl)benzyl)piperidin-4-yl)amino)pyrimidine-2-carbonitrile] was 60 to 600 nM.
The same measure, in the same setting: the value for `N#Cc1nccc(NC2CCN(Cc3ccc(-n4c(-c5cccnc5N)nc5ccc(-c6cnsc6)nc54)cc3)CC2)n1` [Example 480, 4-((1-(4-(2-(2-Aminopyridin-3-yl)-5-(isothiazol-4-yl)-3H-imidazo[4,5-b]pyridin-3-yl)benzyl)piperidin-4-yl)amino)pyrimidine-2-carbonitrile] was less than 15 nM; that for `Cn1nncc1-c1ccc2nc(-c3cccnc3N)n(-c3ccc(CN4CCC(Nc5ccnc(C#N)n5)CC4)cc3)c2n1` [Example 564, 4-((1-(4-(2-(2-Aminopyridin-3-yl)-5-(1-methyl-1H-1,2,3-triazol-5-yl)-3H-imidazo[4,5-b]pyridin-3-yl)benzyl)piperidin-4-yl)amino)pyrimidine-2-carbonitrile] was 15 to 60 nM; that for `N#Cc1nccc(NC2CCN(Cc3ccc(-n4c(-c5cccnc5N)nc5ccc(N6CCOC6=O)nc54)cc3)CC2)n1` [Example 403, 4-((1-(4-(2-(2-Aminopyridin-3-yl)-5-(2-oxooxazolidin-3-yl)-3H-imidazo[4,5-b]pyridin-3-yl)benzyl)piperidin-4-yl)amino)pyrimidine-2-carbonitrile] was less than 15 nM.
Regarding `N#Cc1cc(N2CCN(Cc3ccc(-n4c(-c5cccnc5N)nc5ccc(-c6ccc(Cl)cc6)nc54)cc3)CC2)ncn1` [Example 344, 6-(4-(4-(2-(2-Aminopyridin-3-yl)-5-(4-chlorophenyl)-3H-imidazo[4,5-b]pyridin-3-yl)benzyl)piperazin-1-yl)pyrimidine-4-carbonitrile], the IC50 lay within 60 to 600 nM.
On the same count and under the same terms, the value for `N#Cc1nccc(NC2CCN(Cc3ccc(-n4c(-c5cccnc5N)nc5ccc(-c6ccc(C7CC7)cn6)nc54)cc3)CC2)n1` [Example 644, 4-((1-(4-(2-(2-Aminopyridin-3-yl)-5-(5-cyclopropylpyridin-2-yl)-3H-imidazo[4,5-b]pyridin-3-yl)benzyl)piperidin-4-yl)amino)pyrimidine-2-carbonitrile] was less than 15 nM.

Still in this test, the particulars now being: competitive tracer displacement in living cells, read-out: AKT1 E17K IC50.
As for `COc1ccc2nc(-c3cccnc3N)n(-c3ccc(CN4CCC(Nc5ccnc(C#N)n5)CC4)cc3)c2n1` [Example 287, 4-((1-(4-(2-(2-Aminopyridin-3-yl)-5-methoxy-3H-imidazo[4,5-b]pyridin-3-yl)benzyl)piperidin-4-yl)amino)pyrimidine-2-carbonitrile], the IC50 was less than 15 nM.
The same measure, in the same setting: the value for `N#Cc1cc(C(=O)NC2CCN(Cc3ccc(-n4c(-c5cccnc5N)nc5ccc(-c6ccccc6)nc54)cc3)CC2)ncn1` [Example 117, N-(1-(4-(2-(2-aminopyridin-3-yl)-5-phenyl-3H-imidazo[4,5-b]pyridin-3-yl)benzyl)piperidin-4-yl)-6-cyanopyrimidine-4-carboxamide] was 15 to 60 nM; that for `N#Cc1nccc(NC2CCN(Cc3ccc(-n4c(-c5cccnc5N)nc5ccc(-c6ccccc6F)nc54)cc3)CC2)n1` [Example 316, 4-((1-(4-(2-(2-Aminopyridin-3-yl)-5-(2-fluorophenyl)-3H-imidazo[4,5-b]pyridin-3-yl)benzyl)piperidin-4-yl)amino)pyrimidine-2-carbonitrile] was less than 15 nM; that for `N#Cc1nccc(N2CCN(Cc3ccc(-n4c(-c5cccnc5N)nc5ccc(-c6ccc[nH]c6=O)nc54)cc3)CC2)n1` [Example 259, 4-(4-(4-(2-(2-Aminopyridin-3-yl)-5-(2-oxo-1,2-dihydropyridin-3-yl)-3H-imidazo[4,5-b]pyridin-3-yl)benzyl)piperazin-1-yl)pyrimidine-2-carbonitrile] was less than 15 nM.
For the molecule `N#Cc1ccnc(NC2CCN(Cc3ccc(-n4c(-c5cccnc5N)nc5cccnc54)cc3)CC2)c1` [Example 75, 2-((1-(4-(2-(2-Aminopyridin-3-yl)-3H-imidazo[4,5-b]pyridin-3-yl)benzyl)piperidin-4-yl)amino)isonicotinonitrile], the half-inhibitory concentration (IC50) was in the range of 600 to 10000 nM.
Still for that read-out and setting: the value for `N#Cc1nccc(N2CCN(Cc3ccc(-n4c(-c5cccnc5N)nc5ccc(-c6cccc(F)c6)nc54)cc3)CC2)n1` [Example 295, 4-(4-(4-(2-(2-Aminopyridin-3-yl)-5-(3-fluorophenyl)-3H-imidazo[4,5-b]pyridin-3-yl)benzyl)piperazin-1-yl)pyrimidine-2-carbonitrile] was less than 15 nM.
The same measure, in the same setting: the value for `N#Cc1ccnc(N2CCN(Cc3ccc(-n4c(-c5cccnc5N)nc5ccc(N6CCCNC(=O)C6)nc54)cc3)CC2)n1` [Example 283, 2-(4-(4-(2-(2-Aminopyridin-3-yl)-5-(3-oxo-1,4-diazepan-1-yl)-3H-imidazo[4,5-b]pyridin-3-yl)benzyl)piperazin-1-yl)pyrimidine-4-carbonitrile] was 15 to 60 nM.
The same measure, in the same setting: with `N#Cc1ncnc(N[C@H]2CCCN(Cc3ccc(-n4c(-c5cccnc5N)nc5ccc(-c6ccccc6)nc54)cc3)C2)n1` [Example 224, (S)-4-((1-(4-(2-(2-Aminopyridin-3-yl)-5-phenyl-3H-imidazo[4,5-b]pyridin-3-yl)benzyl)piperidin-3-yl)amino)-1,3,5-triazine-2-carbonitrile] the figure was less than 15 nM.
Regarding `N#Cc1ncnc(N2CC3(CCN(Cc4ccc(-n5c(-c6cccnc6N)nc6ccc(-c7ccccc7)nc65)cc4)C3)C2)n1` [Example 301, 4-(6-(4-(2-(2-Aminopyridin-3-yl)-5-phenyl-3H-imidazo[4,5-b]pyridin-3-yl)benzyl)-2,6-diazaspiro[3.4]octan-2-yl)-1,3,5-triazine-2-carbonitrile], the IC50 was less than 15 nM.
Consider `N#Cc1ccc(OC2CCN(Cc3ccc(-n4c(-c5cccnc5N)nc5cc(-c6ccccc6)cnc54)cc3)CC2)nc1` [Example 3, 6-((1-(4-(2-(2-aminopyridin-3-yl)-6-phenyl-3H-imidazo[4,5-b]pyridin-3-yl)benzyl)piperidin-4-yl)oxy)nicotinonitrile], for which the IC50 lay in the range of 600 to 10000 nM.
Turning to `[2H]C([2H])([2H])N(c1ncnc(C#N)n1)C1CCN(Cc2ccc(-n3c(-c4cccnc4N)nc4ccc(-c5ccccc5)nc43)cc2)CC1` [Example 233, 4-((1-(4-(2-(2-Aminopyridin-3-yl)-5-phenyl-3H-imidazo[4,5-b]pyridin-3-yl)benzyl)piperidin-4-yl)(methyl-d3)amino)-1,3,5-triazine-2-carbonitrile], the IC50 was in the range of 15 to 60 nM.
Consider `N#Cc1cc(N2CCN(Cc3ccc(-n4c(-c5cccnc5N)nc5ccc(N6CCCNC(=O)C6)nc54)cc3)CC2)ncn1` [Example 284, 6-(4-(4-(2-(2-Aminopyridin-3-yl)-5-(3-oxo-1,4-diazepan-1-yl)-3H-imidazo[4,5-b]pyridin-3-yl)benzyl)piperazin-1-yl)pyrimidine-4-carbonitrile], for which the IC50 was in the range of 60 to 600 nM.
`N#Cc1nnccc1C(=O)NC1CCN(Cc2ccc(-n3c(-c4cccnc4N)nc4ccc(-c5ccccc5)nc43)cc2)CC1` [Example 71, N-(1-(4-(2-(2-Aminopyridin-3-yl)-5-phenyl-3H-imidazo[4,5-b]pyridin-3-yl)benzyl)piperidin-4-yl)-3-cyanopyridazine-4-carboxamide]: the IC50 was in the range of 15 to 60 nM.
Take `N#Cc1nccc(N2C3CCC2CN(Cc2ccc(-n4c(-c5cccnc5N)nc5ccc(-c6ccccc6)nc54)cc2)C3)n1` [Example 203, 4-(3-(4-(2-(2-Aminopyridin-3-yl)-5-phenyl-3H-imidazo[4,5-b]pyridin-3-yl)benzyl)-3,8-diazabicyclo[3.2.1]octan-8-yl)pyrimidine-2-carbonitrile]: the IC50 was in the range of 60 to 600 nM.
Same read-out and setting: with `N#Cc1ccc(C(=O)N2CCN(Cc3ccc(-n4c(-c5cccnc5N)nc5cc(-c6ccccc6)cnc54)cc3)CC2)cn1` [Example 111, 5-(4-(4-(2-(2-Aminopyridin-3-yl)-6-phenyl-3H-imidazo[4,5-b]pyridin-3-yl)benzyl)piperazine-1-carbonyl)picolinonitrile] the figure was 600 to 10000 nM.
